From patent US7569542B2, “Anti-microbial targeting chimeric pharmaceutical” (priority 1999, dated 2009) come the findings set out here.

One data set relates to B. cepacia. Type of data set: cell-based. Here is the method: (§1) To test the antimicrobial activity of the fusion peptides against target bacteria, a panel of bacteria, both gram positive and gram negative, were tested.
For another data set, the system named is E. coli 3132 (wt). It counts as cell-based. Here is the method: as §1
The test system of the next data set is E. coli Aw405. It counts as cell-based. As for the experimental part:
as §1

The next data set has as its system E. coli Mg1665 (smooth). Type of data set: cell-based. As for the experimental part:
as §1

Another data set deals with E. coli W3110 ampR. Type of data set: cell-based. Here is the method:
as §1

Data set [1] relates to E. coli W3110. Type of data set: cell-based. Here is the method: as §1
Another data set concerns Klebsiella Kay2026. Type of data set: cell-based. Here is the method: as §1
The test system of the next data set is Myxococcus. Type of data set: cell-based. As for the experimental part: as §1
The next data set has as its system P. aeruginosa Pak (ATCC). Type of data set: cell-based. Here is the method:
as §1

For another data set, the system named is P. aeruginosa Pak. It counts as cell-based. The settings on record: for MBC: Pak. Here is the method: as §1
The test system of the next data set is P. fluorescens 1088. Type of data set: cell-based. Here is the method:
as §1

In the next data set the test system is P. fluorescens 1089. It counts as cell-based. As for the experimental part: as §1
For data set [2], the system named is P. mendocina. Type of data set: cell-based. As for the experimental part:
as §1

A further data set has as its system P. tabaci. It counts as cell-based. As for the experimental part: as §1
Another data set has as its system S. aureus. It counts as cell-based. Here is the method: as §1
For a further data set, the system named is S. mitis. It counts as cell-based. Here is the method: as §1
The next data set deals with S. mutans 140. Type of data set: cell-based. As for the experimental part: as §1
Another data set concerns S. mutans 159. Type of data set: cell-based. As for the experimental part:
as §1

For the next data set, the system named is S. oralis. Type of data set: cell-based. As for the experimental part:
as §1

Data set [3] has as its system S. sanguis. It counts as cell-based. As for the experimental part:
as §1

The test system of a further data set is Salmonella Lt2 (ATCC). Type of data set: cell-based. Here is the method:
as §1

A further data set concerns Y. entercolitica. It counts as cell-based. As for the experimental part:
as §1

For data set [4], the system named is P. mendocina. Type of data set: cell-based, Pseudomonas mendocina. Here is the method: (§2) Briefly, varying concentrations of peptide G10, G10CatC, or G10CatN was added to 10^5 of target bacterial cells and survivors were counted by plating samples after 0.5, 1, 2 and 4 minutes of peptide exposure.
In data set [5] the test system is PAK cells. It counts as cell-based, Pseudomonas aeruginosa PAK. The settings on record: 18 μM peptide, up to 4 min. As for the experimental part:
as §2

Data set [6] concerns P. mendocina. Kind of data set: Long-term time-kill experiment (up to 2 h). The conditions noted are these: for time to kill all input P. mendocina cells: 3 μM peptide; for surviving P. mendocina cells: 9 μM peptide. Type of data set: cell-based, Pseudomonas mendocina. As for the experimental part: Similar to the short-term kinetic studies described above, treatment with 3 μM G10CatC killed all input P. mendocina cells within 30 min, in contrast, it took 2 h for G10 alone to kill all input P. mendocina cells at the same concentration.

Data set [7] relates to E. coli W3110. As to the kind of experiment: Selective killing in mixed culture of P. mendocina and E. coli W3110. Type of data set: cell-based. The conditions noted are these: 6 μM peptide, 4 min; mixed with P. mendocina; preliminary results. Here is the method:
(§3) To test if G10CatC can selectively kill its target bacteria in a mixed culture, 10^5 of P. mendocina and E. coli W3110 cells were mixed and treated with 6 μM G10 or G10CatC peptides. Samples were taken at 30 sec. 1 min, 2 min, and 4 min, and survivors were counted by plating assays.

For data set [8], the system named is P. mendocina. Described as above. Type of data set: cell-based. The settings on record: 6 μM peptide, 4 min; mixed with E. coli W3110; preliminary results. Here is the method:
as §3

Data set [9] concerns PAK cells. As to the kind of experiment: Selective killing in mixed culture of PAK and S. mutans cells. Type of data set: cell-based, P. aeruginosa. The conditions noted are these: 9 μM peptide, within 4 min; mixed with S. mutans. The source says:
(§4) In contrast, G10CatC killed over 90% of PAK cells, but none of S. mutans cells.

The next data set concerns S. mutans cells. Described as above. It counts as cell-based. The settings on record: 9 μM peptide, within 4 min; mixed with PAK cells.
Description: as §4

Data set [10] concerns PAK cells. Kind of data set: Competition-binding experiment, labeled vs unlabeled Cat-1, fluorescent microscopy. Further details: species or system P. aeruginosa. As for the experimental part: To further confirm the specificity of Cat-1 binding to Pak cells, competition-binding experiments were conducted. Labeled Cat-1 was mixed with increasing concentrations of unlabeled Cat-1, and fluorescent labeling of the target bacterial cells was measured by fluorescent microscopy.

Data set [11] is described as follows: Antimicrobial activity of targeting peptide alone. Type of data set: cell-based.
In another data set the test system is Host cells. As to the kind of experiment: Minimal Inhibitory Concentrations. Type of data set: cell-based.
Data set [12] deals with S. sanguis.

Where no end group is shown, it is not given here.

Regarding “KNLRRIIRKGIHIIKKYG [G10, KNLRRIIRKGIHIIKKYG, reference compound]”, the MBC in the data set on B. cepacia was 23 µM; in the data set with E. coli 3132 (wt), 11.25 µM; with E. coli Aw405, 2.8 µM; in the data set with E. coli Mg1665 (smooth) it was 2.8 µM; with E. coli W3110 ampR, 2.8 µM; against E. coli W3110 [1], 1.4 µM. For the same compound, the MBC was >11.25 µM in the data set on Klebsiella Kay2026; >11.25 µM in the data set with Myxococcus; 42.18 µM with P. aeruginosa Pak (ATCC); 54.5 µM with P. aeruginosa Pak; 1.4 µM with P. fluorescens 1088; >11.25 µM in the data set with P. fluorescens 1089. In addition, the MBC in the data set on P. mendocina [2] is 1.05 µM; in the data set on P. tabaci, 5.625 µM; in the data set on S. aureus it was >22.5 µM; in the data set on S. mitis it was >58 µM; in the data set with S. mutans 140 it was 3.5 to 7.03 µM; against S. mutans 159, 3.5 to 7.03 µM. Besides, the minimal bactericidal concentration (MBC) is >58 µM in the data set with S. oralis, 3.5 to 7.03 µM against S. sanguis [3], >22.5 µM with Salmonella Lt2 (ATCC) and 22.5 µM in the data set with Y. entercolitica. The killing activity result in the data set on P. mendocina [4] (3 μM peptide, within 4 min) is “did not display any killing activity”; in the data set on PAK cells [5] it was “did not show any killing activity”. For the same compound, in the data set on P. mendocina [6], the “time to kill all input P. mendocina cells” value came to 2 h. Further, the “surviving P. mendocina cells” value in the data set on P. mendocina [6] (after 30 minutes of exposure) is given as “a significant number of cells were recovered”. The “live W3110 cells in mixed culture” value with E. coli W3110 [7] is given as “did not affect the survival”. Besides, the “live P. mendocina cells in mixed culture” value in the data set with P. mendocina [8] was “did not affect the survival”. Moreover, the “killing of PAK cells in mixed culture” value in the data set on PAK cells [9] was “did not kill any of the cells”. Besides, in the data set on S. mutans cells, the “killing of S. mutans cells in mixed culture” value was “did not kill any of the cells”.

For the compound “KKHRKHRKHRKHGGSGGSKNLRRIIRKGIHIIKKYG [G10CatC]”, the minimal bactericidal concentration (MBC) against B. cepacia is 13 µM; in the data set with E. coli 3132 (wt), 5.8 µM; with E. coli Aw405 it was 11.6 µM; in the data set on E. coli Mg1665 (smooth), 2.9 µM; against E. coli W3110 ampR, 2.9 µM; against E. coli W3110 [1], 2.81 µM. The MBC in the data set with Klebsiella Kay2026 was 11.6 to 23.2 µM; against Myxococcus, >11.6 µM; against P. aeruginosa Pak (ATCC) it was 4.9 µM; against P. aeruginosa Pak it was 1.4 to 2.9 µM; with P. fluorescens 1088 it was 1.45 µM; against P. fluorescens 1089, 2.9 µM. For the same compound, the MBC is 1.4 to 2.4 µM in the data set on P. mendocina [2]; 2.175 µM in the data set with P. tabaci; >23.2 µM against S. aureus; >58 µM in the data set with S. mitis; 3.6 to 7.25 µM in the data set with S. mutans 140; 3.6 to 7.25 µM with S. mutans 159. Also, the MBC is >58 µM in the data set on S. oralis, 3.6 to 7.25 µM in the data set with S. sanguis [3], 11.6 to 23.2 µM in the data set on Salmonella Lt2 (ATCC) and 23.2 µM against Y. entercolitica. Also, the “enhancement of killing activity relative to G10” value in the data set with P. aeruginosa Pak (against Pak, from MBC) amounted to 38 fold. The “MBC relative to G10 alone (higher)” value in the data set on P. mendocina [2] (P. mendocina) is reported as 2 ×. Besides, the “decrease of killing activity relative to G10” value in the data set with P. mendocina [2] (against P. mendocina, from MBC) is on record as 2 fold. Moreover, in the data set with P. mendocina [4] (3 μM peptide), the “time to reduce live P. mendocina cells to below detectable levels” value is on record as ≤ 4 min. Besides, the “time to kill all input P. mendocina cells” value in the data set with P. mendocina [6] is ≤ 0.5 h. Further, in the data set on P. mendocina [6] (after 2 minutes of treatment), the “surviving P. mendocina cells” value is given as “no surviving P. mendocina cells were recovered”. In addition, the “live W3110 cells in mixed culture” value in the data set with E. coli W3110 [7] is “remained nearly unchanged”. In addition, the “live P. mendocina cells in mixed culture” value in the data set on P. mendocina [8] is listed as “no live P. mendocina cells could be detected”. In addition, the “killing of S. mutans cells in mixed culture” value in the data set with S. mutans cells was “none”.

Turning to “KKHRKHRKHRKH (Design peptide) [Cat-1, 61]”, the entries for the “fluorescent signal of labeled Cat-1 on PAK cells” value in the data set with PAK cells [10] (10× molar excess unlabeled Cat-1) and in the data set on PAK cells [10] (equal molar concentration of unlabeled Cat-1 added) were “completely abolished” and “reduced”, respectively. In addition, the antimicrobial activity result in data set [11] is reported as “does not have any antimicrobial activity”.

With “KNLRRIIRKGIHIIKKYGGGSGGSKKHRKHRKHRKH [G10CatN]”, the MBC in the data set on B. cepacia was 11.6 µM; in the data set on E. coli 3132 (wt), 11.6 µM; in the data set on E. coli Aw405, >23.2 µM; against E. coli Mg1665 (smooth), >23.2 µM; with E. coli W3110 [1], >11.6 µM; against Klebsiella Kay2026 it was >11.6 µM. The MBC with Myxococcus was >11.6 µM; in the data set on P. aeruginosa Pak (ATCC) it was 17.4 µM; against P. aeruginosa Pak, 45 µM; with P. fluorescens 1088 it was 1.45 µM; against P. fluorescens 1089 it was 11.6 µM; in the data set on P. mendocina [2] it was 2.8 µM. In addition, the MBC against P. tabaci is >11.6 µM; in the data set on S. aureus it was >23.2 µM; in the data set with Salmonella Lt2 (ATCC) it was >23.2 µM; against Y. entercolitica it was >23.2 µM. Moreover, the killing result with P. mendocina [4] (any concentration tested, through 4 minutes) was “no killing”.

Regarding `C[C@H](NC(=O)[C@H](Cc1cnc[nH]1)NC(=O)[C@H](CO)NC(=O)[C@@H](N)CC(=O)O)C(=O)N[C@@H](CCCCN)C(=O)N[C@@H](CCCNC(=N)N)C(=O)N[C@@H](Cc1cnc[nH]1)C(=O)N[C@@H](Cc1cnc[nH]1)C(=O)NCC(=O)N[C@@H](Cc1ccc(O)cc1)C(=O)N[C@@H](CCCCN)C(=O)N[C@@H](CCCNC(=N)N)C(=O)N[C@@H](CCCCN)C(=O)N[C@@H](Cc1ccccc1)C(=O)N[C@@H](Cc1cnc[nH]1)C(=O)N[C@@H](CCC(=O)O)C(=O)N[C@@H](CCCCN)C(=O)N[C@@H](Cc1cnc[nH]1)C(=O)N[C@@H](Cc1cnc[nH]1)C(=O)N[C@@H](CO)C(=O)N[C@@H](Cc1cnc[nH]1)C(=O)N[C@@H](CCCNC(=N)N)C(=O)NCC(=O)N[C@@H](Cc1ccc(O)cc1)C(=O)O` [Histatin 5, DSHAKRHHGY KRKFHEKHHS HRGY], the figures for the “Minimal Inhibitory Concentrations” value with Host cells, with S. mutans and in the data set on S. sanguis [12] were >50 µM, ~10 µM and ~10 µM, respectively.
